In US11066447B2, “Aureobasidium derivatives and methods of synthesis” (AureoGen Biosciences, Inc., priority 2016, dated 2021):
Converted amounts (≈) assume the structure as drawn. Where two headings read alike, the source gives them in different places. Numbered stars: 1 amine (or outer) side, 2 acyl side, 3 side chain; on linkers, the order of the positions; unused ones are H or OH. Square brackets hold non-standard residues; d marks the D form. Peptide text beside a SMILES is read from it. X27 = CN([C@@H](Cc1cccc(-c2cccc3ccccc23)c1)C(=O)[*:2])[*:1]; X32 = CN([C@@H](Cc1cccc(-c2cccc(F)c2)c1)C(=O)[*:2])[*:1]; X34 = CC[C@@H](C)[C@@H](O[*:1])C(=O)[*:2]; Hmp(2R,3S) = CC[C@H](C)[C@@H](O)C(=O)O; NMeVal(β-OH) = CN[C@H](C(=O)O)C(C)(C)O; NMeF = CN[C@@H](Cc1ccccc1)C(=O)O; aIle = CC[C@@H](C)[C@H](N)C(=O)O; NMeV = CN[C@H](C(=O)O)C(C)C

Experiments:
[1] = system: A. fumigatus MMX 5280 ATCC MYA-3626; experiment: MIC/MEC assay (CLSI microdilution); format: cell-based, Aspergillus fumigatus
Procedure: (§1) Aureobasidin and test compounds (i.e., AbA derivatives of the present invention) were received from Kalexsyn, Inc. (Kalamazoo, Mich.) as powder and were stored at 4° C. until the day of assay. […] amphotericin was obtained from Sigma Aldrich and stored under like conditions. […] Ethanol (95%) was used as a solvent and diluent for all AbA compounds. Amphotericin B was tested from 0.06-64 μg/mL. Amphotericin B (Sigma Aldrich; St. Louis, Mo.; Cat No. A9528-100MG, Lot No. 120M4087) was dissolved and diluted with dimethylsulfoxide (DMSO; Sigma Aldrich; St. Louis, Mo.; Cat No. 472301 Lot No. SHBD2072V).
(§2) The solvents were added to the test agents and the stock solutions stood for approximately 1 hr at room temperature prior to use to auto sterilize. Stock solutions were prepared at 40× the desired top concentration in the test plate.
(§3) All of the test isolates were originally received from either the American Type Culture Collection (ATCC), clinical labs, or directly from Aureogen Biosciences. Organisms stored by Micromyx were cultured on agar medium appropriate to each organism. Colonies were picked by swab from the isolation plates and put into suspension in appropriate broth containing cryoprotectant. The suspensions were aliquoted into cryogenic vials and maintained at −80° C.
(§4) Prior to testing, Candida isolates were streaked from the frozen vials on Sabouraud dextrose agar. The yeast isolates were incubated for 48 hours at 35° C. before use. The fungal isolates were obtained from enumerated fungal stocks previously prepared at Micromyx and stored in phosphate buffered saline at 4° C.
(§5) Test Media. The medium employed for the MIC assay was RPMI-1640 medium from HyClone Laboratories (Logan, Utah; Lot No. AYB60287A). The medium was prepared according to Clinical and Laboratory Standards Institute (CLSI) guidelines (1, 2), and modified to include 0.002% Tween-80. Candida parapsilosis ATCC 22019 (MMX 2323) and Aspergillus fumigatus ATCC MYA-3626 (MMX 5280) were also tested without Tween-80 to provide data for the quality control of amphotericin B in accordance with CLSI (3) and to assess the effect of Tween-80 on the activity of the test agents.
(§6) Test Procedure. The MIC assay method followed the procedure described by CLSI (1, 2) and employed automated liquid handlers to conduct serial dilutions and liquid transfers. Automated liquid handlers included the Multidrop 384 (Labsystems, Helsinki, Finland), Biomek 2000 and Biomek FX (Beckman Coulter, Fullerton Calif.). The wells in columns 2-12 in standard 96-well microdilution plates (Costar 3795) were filled with 150 μl of the appropriate diluent (95% EtOH for investigational compounds, 100% DMSO for amphotericin B). These assay plates would become the ‘mother plates’ from which the assay ‘daughter plates’ would be prepared. The drugs (300 μL at 40× the desired top concentration in the test plates) were dispensed into the appropriate well in Column 1 of the mother plates. The Biomek 2000 was used to make two-fold serial dilutions through Column 11 in the “mother plate”. The wells of Column 12 contained no drug and served as the organism growth control wells.
(§7) The daughter plates were loaded with 185 μL per well on the Multidrop 384 with RPMI plus 0.002% Tween-80 or RPMI containing no Tween-80 for the testing of the two QC isolates. The daughter plates were prepared on the Biomek FX instrument which transferred 5 μL of drug solution from each well of a mother plate to each corresponding well of each daughter plate in a single step.
(§8) A standardized inoculum of each organism was prepared per CLSI methods (1, 2). For the Candida isolates, colonies were picked from the streak plate and a suspension was prepared in RPMI to equal a 0.5 McFarland standard. This suspension was diluted 1:100 in RPMI resulting in a final concentration of approximately 0.5-2.5×10^3 CFU/mL. […]

[2] = system: C. parapsilosis MMX 2323 ATCC 22019; experiment: MIC assay (CLSI microdilution); format: cell-based, Candida parapsilosis
Procedure: as §1, §2, §3, §4, §5, §6, §7, §8

[3] = system: A. fumigatus MMX 6781 ATCC MYA-4609; experiment: MIC/MEC assay (CLSI microdilution); format: cell-based
Procedure: as §1, §2, §3, §4, §5, §6, §7, §8

[4] = system: A. flavus MMX 5948; experiment: MIC/MEC assay (CLSI microdilution); format: cell-based
Procedure: as §1, §2, §3, §4, §5, §6, §7, §8

[5] = system: A. niger MMX 0624 ATCC 16888; experiment: MIC/MEC assay (CLSI microdilution); format: cell-based; conditions: for minimal effective concentration: RPMI plus 0.002% Tween-80, read-out: MEC
Procedure: as §1, §2, §3, §4, §5, §6, §7, §8

[6] = system: A. fumigatus MMX 5944; experiment: MIC/MEC assay (CLSI microdilution); format: cell-based
Procedure: as §1, §2, §3, §4, §5, §6, §7, §8

[7] = system: A. fumigatus MMX 6782 ATCC 13073; experiment: MIC/MEC assay (CLSI microdilution); format: cell-based; conditions: for minimal effective concentration: RPMI plus 0.002% Tween-80, read-out: MEC
Procedure: as §1, §2, §3, §4, §5, §6, §7, §8

[8] = system: C. albicans MMX 2000 ATCC 10231; experiment: MIC assay (CLSI microdilution); format: cell-based
Procedure: as §1, §2, §3, §4, §5, §6, §7, §8

[9] = system: C. neoformans MMX 0634 ATCC 90112; experiment: MIC assay (CLSI microdilution); format: cell-based
Procedure: as §1, §2, §3, §4, §5, §6, §7, §8

[10] = RPMI plus 0.002% Tween-80, 48 hr
[11] = Aspergillus fumigatus, 48 h, RPMI plus 0.002% Tween-80, read-out: MEC
[12] = Aspergillus fumigatus, 48 h, RPMI plus 0.002% Tween-80, read-out: MIC
[13] = Aspergillus fumigatus, 48 h, Without Tween-80, read-out: MEC
[14] = Aspergillus fumigatus, 48 h, Without Tween-80, read-out: MIC
[15] = ATCC22019, RPMI plus 0.002% Tween-80, read-out: MIC
[16] = ATCC22019, Without Tween-80, read-out: MIC
[17] = Aspergillus fumigatus, RPMI plus 0.002% Tween-80, 48 hr
[18] = Aspergillus flavus, MMX5948, 48 h, RPMI plus 0.002% Tween-80
[19] = Aspergillus flavus, MMX5948, 48 h, RPMI plus 0.002% Tween-80, read-out: MIC
[20] = Aspergillus niger, ATCC16888, 48 h
[21] = Aspergillus niger, ATCC16888, 48 h, RPMI plus 0.002% Tween-80, read-out: MIC
[22] = Aspergillus fumigatus, MMX5944, 48 h, RPMI plus 0.002% Tween-80
[23] = Aspergillus fumigatus, MMX5944, 48 h, RPMI plus 0.002% Tween-80, read-out: MIC
[24] = Aspergillus fumigatus, ATCC13073, 48 h
[25] = Aspergillus fumigatus, ATCC13073, 48 h, RPMI plus 0.002% Tween-80, read-out: MIC
[26] = Candida albicans, ATCC10231, RPMI plus 0.002% Tween-80, read-out: MIC
[27] = Cryptococcus neoformans, ATCC90112, RPMI plus 0.002% Tween-80, read-out: MIC

| MIC [1, 12] [µg/mL] | MIC [1, 14] [µg/mL] | MIC [2, 15] [µg/mL] | MIC [2, 16] [µg/mL] | MIC [3, 12] [µg/mL] | MIC [4, 19] [µg/mL] | MIC [5, 21] [µg/mL] | MIC [6, 23] [µg/mL] | MIC [7, 25] [µg/mL] | MIC [8, 26] [µg/mL] | MIC [9, 27] [µg/mL] | Compound | minimal effective concentration [1, 11] [µg/mL] | minimal effective concentration [1, 13] [µg/mL] | minimal effective concentration [3, 17] [µg/mL] | minimal effective concentration [4, 18] [µg/mL] | minimal effective concentration [5, 20] [µg/mL] | minimal effective concentration [6, 22] [µg/mL] | minimal effective concentration [7, 24] [µg/mL] | further results |
| --- | --- | --- | --- | --- | --- | --- | --- | --- | --- | --- | --- | --- | --- | --- | --- | --- | --- | --- | --- |
| – | – | – | – | – | – | – | – | – | – | – | CC[C@@H](C)[C@@H]1NC(=O)[C@@H]2CCCN2C(=O)[C@H](Cc2ccccc2)N(C)C(=O)[C@H](Cc2ccccc2)NC(=O)[C@H](C(C)C)N(C)C(=O)[C@@H]([C@H](C)CC)OC(=O)[C@H](C(C)(C)O)N(C)C(=O)[C@H](CC(C)C)NC(=O)[C@H](C(C)C)N(C)C1=O [Aureobasidin A, reference compound] (cyclo(F[NMeF]P[aIle][NMeV]L[NMeVal(β-OH)][X34][NMeV])) | – | – | – | – | – | – | – | MEC [1, 10]: >64/>64 μg/mL; MIC [1, 10]: >64/>64 μg/mL; MEC ([1]; Without Tween-80, 48 hr): >64/>64 μg/mL; MIC ([1]; Without Tween-80, 48 hr): >64/>64 μg/mL; MIC ([2]; RPMI plus 0.002% Tween-80): 0.008 µg/mL; MIC ([2]; Without Tween-80): 0.25 µg/mL (≈ 0.227 µM); MEC [3, 10]: >64/>64 μg/mL; MIC [3, 10]: >64/>64 μg/mL; MEC [4, 10]: >64/>64 μg/mL; MIC [4, 10]: >64/>64 μg/mL; MEC [5, 10]: >64/>64 μg/mL; MIC [5, 10]: >64/>64 μg/mL; MEC [6, 10]: 2 µg/mL; MIC [6, 10]: > 64 µg/mL; MEC [7, 10]: 2 µg/mL; MIC [7, 10]: > 64 µg/mL; MIC ([8]; RPMI plus 0.002% Tween-80): ≤0.002 µg/mL; MIC ([9]; RPMI plus 0.002% Tween-80): 0.06 µg/mL |
| > 64 | > 64 | 0.12 | 1 (≈ 0.836 µM) | > 64 | > 64 | 0.25 | > 64 | > 64 | 0.015 | 0.12 | CC[C@H](C)[C@@H]1NC(=O)[C@@H]2CCCN2C(=O)[C@H](Cc2cccc(-c3cccc(F)c3)c2)N(C)C(=O)[C@H](Cc2ccccc2)NC(=O)[C@H](C(C)C)N(C)C(=O)[C@@H]([C@@H](C)CC)OC(=O)[C@H](C(C)(C)O)N(C)C(=O)[C@H](CC(C)C)NC(=O)[C@H](C(C)C)N(C)C1=O [Compound 7] (cyclo(F[X32]PI[NMeV]L[NMeVal(β-OH)][Hmp(2R,3S)][NMeV])) | 2 | 64 | 1 | > 64 | 0.25 | 0.5 | 0.5 | – |
| > 64 | > 64 | 0.25 | 1 (≈ 0.815 µM) | > 64 | > 64 | 0.25 | > 64 | > 64 | 0.12 | 0.12 | CC[C@H](C)[C@@H]1NC(=O)[C@@H]2CCCN2C(=O)[C@H](Cc2cccc(-c3cccc4ccccc34)c2)N(C)C(=O)[C@H](Cc2ccccc2)NC(=O)[C@H](C(C)C)N(C)C(=O)[C@@H]([C@@H](C)CC)OC(=O)[C@H](C(C)(C)O)N(C)C(=O)[C@H](CC(C)C)NC(=O)[C@H](C(C)C)N(C)C1=O [Compound 9] (cyclo(F[X27]PI[NMeV]L[NMeVal(β-OH)][Hmp(2R,3S)][NMeV])) | > 64 | > 64 | 1 | > 64 | 0.25 | > 64 | 1 | – |
